Results: patent US7273885B2, “Inhibitors of serine proteases, particularly HCV NS3-NS4A protease” (Vertex Pharmaceuticals Incorporated, priority 2002, dated 2007)
Where two headings read alike, the source gives them in different places. *1 amine or outer side, *2 acyl side, *3 side chain or, on linkers, in order; H or OH if unused. Where a SMILES comes first, the peptide text is derived from it. [ ]: non-standard residue; d: D form. The star is where a group is joined. Oic = O=C(O)[C@@H]1C[C@@H]2CCCC[C@@H]2N1; X2 = CCC[C@H](N[*:1])C(=O)C(=O)[*:2]; Isopropoxycarbonyl = CC(C)OC(=O)*; Pyrazinecarbonyl = O=C(c1cnccn1)*; X1 = CCCC(N[*:1])C(=O)C(=O)[*:2]; Chg = N[C@H](C(=O)O)C1CCCCC1; Tle = CC(C)(C)[C@H](N)C(=O)O; NHcPr = C1CC1N*

Experiments:
[1] = target: HCV NS3-NS4A protease (tNS3 with KK4A) (Hepatitis C virus genotype 1a, UniProt P27958); test: HCV Ki assay (HPLC microbore separation of 5AB substrate and products); format: biochemical
Description: HPLC Microbore Method for Separation of 5AB Substrate and Products
• Substrate: • NH2-Glu-Asp-Val-Val-(alpha)Abu-Cys-Ser-Met-Ser-Tyr-COOH
A stock solution of 20 mM 5AB (or concentration of your choice) was made in DMSO w/ 0.2M DTT. This was stored in aliquots at −20 C.
Buffer: 50 mM HEPES, pH 7.8; 20% glycerol; 100 mM NaCl
Total assay volume was 100 μL
The buffer, KK4A, DTT, and tNS3 were combined; distributed 78 μL each into wells of 96 well plate. This was incubated at 30 C for ˜5–10 min.
2.5 μL of appropriate concentration of test compound was dissolved in DMSO (DMSO only for control) and added to each well. This was incubated at room temperature for 15 min.
Initiated reaction by addition of 20 μL of 250 μM 5AB substrate (25 μM concentration is equivalent or slightly lower than the Km for 5AB).
Incubated for 20 min at 30 C.
Terminated reaction by addition of 25 μL of 10% TFA
Transferred 120 μL aliquots to HPLC vials
Separated SMSY product from substrate and KK4A by the following method:
Microbore Separation Method:
Instrumentation: Agilent 1100
• Degasser G1322A • Binary pump G1312A • Autosampler G1313A • Column thermostated chamber G1316A • Diode array detector G1315A Column:
Phenomenex Jupiter; 5 micron C18; 300 angstroms; 150×2 mm; P/O 00F-4053-B0 • Column thermostat: 40 C • Injection volume: 100 μL • Solvent A=HPLC grade water+0.1% TFA • Solvent B=HPLC grade acetonitrile+0.1% TFA
• Stop time: 17 min • Post-run time: 10 min.

[2] = test system: Cells containing hepatitis C virus (HCV) replicon; test: HCV replicon cell assay (Taqman RT-PCR of HCV RNA); format: cell-based; details: 50% inhibition of HCV RNA level, 48-hour incubation, HCV replicon cells, read-out: IC50
Description: HCV Replicon Cell Assay Protocol
Cells containing hepatitis C virus (HCV) replicon were maintained in DMEM containing 10% fetal bovine serum (FBS), 0.25 mg per ml of G418, with appropriate supplements (media A).
On day 1, replicon cell monolayer was treated with a trypsin:EDTA mixture, removed, and then media A was diluted into a final concentration of 100,000 cells per ml wit. 10,000 cells in 100 ul were plated into each well of a 96-well tissue culture plate, and cultured overnight in a tissue culture incubator at 37° C.
On day 2, compounds (in 100% DMSO) were serially diluted into DMEM containing 2% FBS, 0.5% DMSO, with appropriate supplements (media B). The final concentration of DMSO was maintained at 0.5% throughout the dilution series.
Media on the replicon cell monolayer was removed, and then media B containing various concentrations of compounds was added. Media B without any compound was added to other wells as no compound controls.
Cells were incubated with compound or 0.5% DMSO in media B for 48 hours in a tissue culture incubator at 37° C. At the end of the 48-hour incubation, the media was removed, and the replicon cell monolayer was washed once with PBS and stored at −80° C. prior to RNA extraction.
Culture plates with treated replicon cell monolayers were thawed, and a fixed amount of another RNA virus, such as Bovine Viral Diarrhea Virus (BVDV) was added to cells in each well. RNA extraction reagents (such as reagents from RNeasy kits) were added to the cells immediately to avoid degradation of RNA. Total RNA was extracted according the instruction of manufacturer with modification to improve extraction efficiency and consistency. Finally, total cellular RNA, including HCV replicon RNA, was eluted and stored at −80° C. until further processing.
A Taqman real-time RT-PCR quantification assay was set up with two sets of specific primers and probe. One was for HCV and the other was for BVDV. Total RNA extractants from treated HCV replicon cells was added to the PCR reactions for quantification of both HCV and BVDV RNA in the same PCR well. Experimental failure was flagged and rejected based on the level of BVDV RNA in each well. The level of HCV RNA in each well was calculated according to a standard curve run in the same PCR plate. The percentage of inhibition or decrease of HCV RNA level due to compound treatment was calculated using the DMSO or no compound control as 0% of inhibition. The IC50 (concentration at which 50% inhibition of HCV RNA level is observed) was calculated from the titration curve of any given compound.

HCV NS3-NS4A protease (tNS3 with KK4A), sequence (P27958 1027-1208): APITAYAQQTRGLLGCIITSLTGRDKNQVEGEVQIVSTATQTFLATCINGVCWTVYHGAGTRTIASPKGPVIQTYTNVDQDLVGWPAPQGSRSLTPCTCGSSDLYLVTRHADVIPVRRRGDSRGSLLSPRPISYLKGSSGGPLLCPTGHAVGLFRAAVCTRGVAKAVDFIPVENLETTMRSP

## CCC[C@H](NC(=O)[C@@H]1C[C@@H]2CCCC[C@@H]2N1C(=O)[C@@H](NC(=O)[C@@H](NC(=O)[C@](C)(O)c1ccccc1)C1CCCCC1)C(C)(C)C)C(=O)C(=O)NC1CC1 [Compound 20a]
[1]
  Ki: < 500 nM
[2]
  IC50: 500 to 1000 nM

## CCC[C@H](NC(=O)[C@@H]1C[C@@H]2CCCC[C@@H]2N1C(=O)[C@@H](NC(=O)[C@@H](NC(=O)c1ccc[nH]1)C1CCCCC1)C(C)(C)C)C(=O)C(=O)NC1CC1 [Compound 11a]
[1]
  Ki: < 500 nM
[2]
  IC50: < 500 nM

## CCC[C@@H](NC(=O)[C@@H]1C[C@@H]2CCCC[C@@H]2N1C(=O)[C@@H](NC(=O)[C@@H](NC(=O)c1cnccn1)C1CCCCC1)C(C)(C)C)C(=O)C(=O)NC1CC1 [Compound 60a]
[1]
  Ki: 1000 to 5000 nM
[2]
  IC50: 1000 to 5000 nM

## CCC[C@H](NC(=O)[C@@H]1C[C@@H]2CCCC[C@@H]2N1C(=O)[C@@H](NC(=O)[C@@H](NC(=O)c1cnccn1)C1CCCCC1)C(C)(C)C)C(=O)C(=O)N[C@@H]1CCOC1 [Compound 47a]
[1]
  Ki: 500 to 1000 nM
[2]
  IC50: 1000 to 5000 nM

## CCC[C@H](NC(=O)[C@@H]1C[C@@H]2CCCC[C@@H]2N1C(=O)[C@@H](NC(=O)[C@@H](NC(=O)c1cc(C(=O)CC)c[nH]1)C1CCCCC1)C(C)(C)C)C(=O)C(=O)NC1CC1 [Compound 44a]
[1]
  Ki: < 500 nM
[2]
  IC50: < 500 nM

## CCC[C@H](NC(=O)[C@@H]1C[C@@H]2CCCC[C@@H]2N1C(=O)[C@@H](NC(=O)[C@@H](NC(=O)c1[nH]c2ccccc2c1C(C)=O)C1CCCCC1)C(C)(C)C)C(=O)C(=O)NC1CC1 [Compound 39a, 3-Acetyl-1H-indole-2-carboxylic acid (cyclohexyl-{1-[2-(1-cyclopropylaminooxalyl-butylcarbamoyl)-octahydro-indole-1-carbonyl]-2,2-dimethyl-propylcarbamoyl}-methyl)-amide]
[1]
  Ki: < 500 nM
[2]
  IC50: < 500 nM

## CCC[C@H](NC(=O)[C@@H]1C[C@@H]2CCCC[C@@H]2N1C(=O)[C@@H](NC(=O)[C@@H](NC(=O)c1[nH]c(C)c(C(=O)c2ccccc2)c1C#N)C1CCCCC1)C(C)(C)C)C(=O)C(=O)NC1CC1 [Compound 34a]
[1]
  Ki: < 500 nM
[2]
  IC50: 1000 to 5000 nM

## CCC[C@H](NC(=O)[C@@H]1C[C@@H]2CCCC[C@@H]2N1C(=O)[C@@H](NC(=O)[C@@H](NC(=O)c1ccc2cccnc2n1)C1CCCCC1)C(C)(C)C)C(=O)C(=O)NC1CC1 [Compound 36a]
[1]
  Ki: < 500 nM
[2]
  IC50: 1000 to 5000 nM

## CC(=O)c1c(C(=O)N[C@H](C(=O)N[C@H](C(=O)N2[C@H](C(=O)N[C@@H](CC(F)F)C(=O)C(=O)NC3CC3)C[C@@H]3CCCC[C@@H]32)C(C)(C)C)C2CCCCC2)[nH]c(C)c1C [Compound 61a]
[1]
  Ki: < 500 nM
[2]
  IC50: < 500 nM

## CCCC(NC(=O)[C@@H]1C[C@@H]2CCCC[C@@H]2N1C(=O)[C@@H](NC(=O)[C@@H](NC(=O)[C@H](C)NC(=O)OC(C)C)C1CCCCC1)C(C)(C)C)C(=O)C(=O)NC1CC1 (stereo partly shown) [Compound 6a] (Isopropoxycarbonyl-A[Chg][Tle][Oic][X1]-NHcPr)
[1]
  Ki: < 500 nM

## CCCC(NC(=O)[C@@H]1C[C@@H]2CCCC[C@@H]2N1C(=O)[C@@H](NC(=O)[C@@H](NC(=O)c1cnccn1)C(C)C)C(C)C)C(=O)C(=O)N[C@@H](Cc1ccccc1)C(=O)O (stereo partly shown) [Compound 1a] (Pyrazinecarbonyl-VV[Oic][X1]F-OH)
[1]
  Ki: < 500 nM

## CCC[C@H](NC(=O)[C@@H]1C[C@@H]2CCCC[C@@H]2N1C(=O)[C@@H](NC(=O)[C@@H](NC(=O)c1[nH]c(C)c(C)c1C(C)=O)C1CCCCC1)C(C)(C)C)C(=O)C(=O)C(C)C [Compound 62a]
[1]
  Ki: 500 to 1000 nM

## CCC[C@H](NC(=O)[C@@H]1C[C@@H]2CCCC[C@@H]2N1C(=O)[C@@H](NC(=O)[C@@H](NC(=O)c1cnccn1)C1CCCCC1)C(C)(C)C)C(=O)C(=O)NCC(=O)N(C)C [Compound 54a] (Pyrazinecarbonyl-[Chg][Tle][Oic][X2]G-NMe2)
[1]
  Ki: 1000 to 5000 nM

## CCC[C@H](NC(=O)[C@@H]1C[C@@H]2CCCC[C@@H]2N1C(=O)[C@@H](NC(=O)[C@H](C1CCCCC1)N1C(=O)c2ccccc2C1=O)C(C)(C)C)C(=O)C(=O)NC1CC1 [Compound 57a]
[1]
  Ki: < 500 nM

## CCC[C@H](NC(=O)[C@@H]1C[C@@H]2CCCC[C@@H]2N1C(=O)[C@@H](NC(=O)[C@@H](NC(=O)c1[nH]c(C)c(C)c1C(C)=O)C(C)C)C(C)(C)C)C(=O)C(=O)NC1CC1 [Compound 58a]
[1]
  Ki: < 500 nM

## CCC[C@H](NC(=O)[C@@H]1C[C@@H]2CCCC[C@@H]2N1C(=O)[C@@H](NC(=O)[C@@H](NC(=O)c1[nH]c(C)c(C)c1C(C)=O)C(C)CC)C(C)(C)C)C(=O)C(=O)NC1CC1 (stereo partly shown) [Compound 59a]
[1]
  Ki: < 500 nM

## CCCC(NC(=O)[C@@H]1C[C@@H]2CCCC[C@@H]2N1C(=O)[C@@H](NC(=O)[C@@H](NC(=O)c1cnccn1)C1CCCCC1)C(C)(C)C)B1O[C@@H]2C[C@@H]3C[C@@H](C3(C)C)[C@]2(C)O1 (stereo partly shown) [Compound 56a]
[1]; 25 nM tNS3, 25 μM KK4A, 25 μM 5AB substrate, 20 min at 30 C, read-out: Ki
  Ki: < 500 nM

## CCCC(NC(=O)[C@@H]1C[C@@H]2CCCC[C@@H]2N1C(=O)[C@@H](NC(=O)[C@@H](NC(=O)C1CSC(=O)N1)C1CCCCC1)C(C)(C)C)C(=O)C(=O)N[C@@H](C)c1ccccc1 (stereo partly shown) [Compound 8a]
[1]
  Ki: < 500 nM

## CCC[C@H](NC(=O)[C@@H]1C[C@@H]2CCCC[C@@H]2N1C(=O)[C@@H](NC(=O)[C@@H](NC(=O)c1nccnc1C(N)=O)C1CCCCC1)C(C)(C)C)C(=O)C(=O)NC1CC1 [Compound 28a]
[1]
  Ki: < 500 nM

## CCCC(NC(=O)[C@@H]1C[C@@H]2CCCC[C@@H]2N1C(=O)[C@@H](NC(=O)[C@@H](NC(=O)c1cnccn1)C(C)C)C(C)C)C(=O)C(=O)NC1CC1 (stereo partly shown) [Compound 2a]
[1]
  Ki: 500 to 1000 nM

## CCC[C@H](NC(=O)[C@@H]1C[C@@H]2CCCC[C@@H]2N1C(=O)[C@@H](NC(=O)[C@@H](NC(=O)c1cnccn1)C1CCCCC1)C(C)(C)C)C(=O)C(=O)N(C)C [Compound 50a]
[1]
  Ki: 1000 to 5000 nM

## CCCC(NC(=O)[C@@H]1C[C@@H]2CCCC[C@@H]2N1C(=O)[C@@H](NC(=O)[C@@H](NC(=O)[C@H](C)NC(=O)OC(C)C)C1CCCCC1)C(C)C)C(=O)C(=O)NC1CC1 (stereo partly shown) [Compound 5a] (Isopropoxycarbonyl-A[Chg]V[Oic][X1]-NHcPr)
[1]
  Ki: < 500 nM

## CCC[C@H](NC(=O)[C@@H]1C[C@@H]2CCCC[C@@H]2N1C(=O)[C@@H](NC(=O)[C@@H](NC(=O)c1ccnn1C)C1CCCCC1)C(C)(C)C)C(=O)C(=O)NC1CC1 [Compound 17a]
[1]
  Ki: 1000 to 5000 nM

## CCC[C@H](NC(=O)[C@@H]1C[C@@H]2CCCC[C@@H]2N1C(=O)[C@@H](NC(=O)[C@@H](NC(=O)c1[nH]ncc1Cl)C1CCCCC1)C(C)(C)C)C(=O)C(=O)NC1CC1 [Compound 38a]
[1]
  Ki: 500 to 1000 nM

## CCCC(NC(=O)[C@@H]1C[C@@H]2CCCC[C@@H]2N1C(=O)[C@@H](NC(=O)[C@@H](NC(=O)c1cnccn1)C1CCCCC1)C(C)(C)C)C(=O)C(=O)N[C@@H](C)c1ccccc1 (stereo partly shown) [Compound 7a]
[1]
  Ki: < 500 nM
